Laboratory results from patent US20110212972A1, “Compositions and Methods for Treating Female Sexual Dysfunction” (Pfizer Inc, priority 2000, published 2011).

Legend:
MCF-7 cells = experiment: Inhibition of in vitro human breast tumor cell growth, ER-positive MCF-7; type: cell-based; settings: MCF-7 (ER-positive), 6 days incubation, direct cell counts
Procedure: (§1) The in vitro antiproliferative effects of (−)-cis-6-phenyl-5-[4-(2-pyrrolidin-1-yl-ethoxy)-phenyl]-5,6,7,8-tetrahydro-naphthalene-2-ol (PPTN) were tested using two types of human breast cancer cell lines: first, MCF-7 cells, which contain ER as well as progesterone receptors (PgR), and second, MDA-MB-231 cells, which lack ER and PgR, and enable the determination of an effect that is independent of the ER mechanism. The effect of PPTN on the growth of these different cell lines was determined by incubation of the cells with various compound concentrations for 6 days.
(§2) The antiproliferative effects were then determined by direct cell counts.

MDA-MB-231 cells = experiment: Inhibition of in vitro human breast tumor cell growth, ER-negative MDA-MB-231; type: cell-based; settings: MDA-MB-231 (ER-negative), 6 days incubation, direct cell counts
Procedure: as §1, §2

IC50 for growth inhibition (MCF-7 cells): 3 to 5×10^−11 M
SMILES: Oc1ccc2c(c1)CC[C@H](c1ccccc1)[C@@H]2c1ccc(OCCN2CCCC2)cc1 [PPTN, (−)-cis-6-phenyl-5-[4-(2-pyrrolidin-1-yl-ethoxy)-phenyl]-5,6,7,8-tetrahydro-naphthalene-2-ol]
effect on cell growth (MCF-7 cells): inhibited the growth
effect on cell proliferation (MDA-MB-231 cells): did not inhibit cell proliferation
